This is an account of results in patent US6649646B2, “Insecticidal and miticidal compositions” (priority 1996, dated 2003).

In series [1] the test system is Kanzawa spider mite (Tetranychus kanzawai kishida) which had acquired a strong resistance to chlorfenapyr. Description: Miticidal effect against female imagines of chlorfenapyr-resistant Kanzawa spider mite, leaf disk spray test. The class given is in vivo. From the text:
For a T value equal to 100, an additive action is indicated.

The subject of series [2] is susceptible strain of spider mite. Briefly: LC50 against a susceptible strain of spider mite. The class given is in vivo.
[3] abbreviates: single test compound, female imago, chlorfenapyr-resistant strain, mortality two days after spray treatment, 25±1° C., probit analysis.

In the case of `COP(=S)(OC)Oc1ccc(C#N)cc1` [CYAP, O,O-Dimethyl-O-p-cyanophenylthiophosphate], the LC50 – broadly, the concentration lethal to half of the exposed cells or organisms – in series [1] (setting [3]) was determined as 3200 ppm.
With `CCOCn1c(-c2ccc(Cl)cc2)c(C#N)c(Br)c1C(F)(F)F` [Chlorfenapyr, 4-Bromo-2-(4-chlorophenyl)-1-(ethoxymethyl)-5-(trifluoromethyl)pyrrole-3-carbonitrile], the “resistance to chlorfenapyr of the resistant strain versus susceptible strain” value in series [1] (LC50 resistant strain relative to susceptible strain) is recorded as approximately 300 fold. Further, the LC50 in series [1] (setting [3]) is 1500 ppm; in series [2], “about 5 ppm”.
In turn, `CCOP(=S)(OCC)Oc1nc(Cl)c(Cl)cc1Cl` [Chlorpyrifos, O,O-Diethyl-O-3,5,6-trichloro-2-pyridylphosphorothioate] yielded an LC50 in series [1] (setting [3]) of 3200 ppm.
Still for that read-out and setting: the value for `COP(=S)(OC)Oc1nc(Cl)c(Cl)cc1Cl` [Chlorpyrifosmethyl, O,O-Dimethyl-O-3,5,6-trichloro-2-pyridylphosphorothioate] was 790 ppm; that for `CCOP(=S)(OCC)Oc1cc(C)nc(C(C)C)n1` [Diazinon, (2-isopropyl-4-methylpyrimidyl-6)-diethylthiophosphate] was 3200 ppm.
On the same count and under the same terms, the value for `CCOP(=S)(Oc1ccc([N+](=O)[O-])cc1)c1ccccc1` (stereo not drawn) [EPN, Ethyl p-nitrophenylthionobenzenephosphonate] was 3100 ppm; that for `CCOP(=S)(OCC)SCSP(=S)(OCC)OCC` [Ethion, O,O,O′,O′-Tetraethyl-S,S′-methylenebisphosphorodithioate] was 3100 ppm; that for `CC(C)OP(=O)(OC(C)C)SCc1ccccc1` [IBP, O,O-Diisopropyl-S-benzylthiophosphate] was 1300 ppm.
On the same count and under the same terms, in the case of `COP(=S)(OC)Oc1ccc([N+](=O)[O-])c(C)c1` [MEP, O,O-Dimethyl-O-(3-methyl-4-nitrophenyl)thiophosphate] it was 3200 ppm; in that of `COP(=S)(OC)Oc1ccc(SC)c(C)c1` [MPP, O,O-Dimethyl-O-[3-methyl-4-(methylthio)phenyl]-thiophosphate], 1100 ppm; in that of `CCOC(=O)CC(SP(=S)(OC)OC)C(=O)OCC` (stereo not drawn) [Malathon, Dimethyldicarbethoxyethyldithiophosphate], 3400 ppm.
`CCOC(=O)C(SP(=S)(OC)OC)c1ccccc1` (stereo not drawn) [PAP, Ethyl dimethyldithiophosphorylphenylacetate] gave an LC50 in series [1] (setting [3]) of 2000 ppm.
The same measure, in the same setting: the value for `CCOP(=S)(OCC)SCn1c(=O)oc2cc(Cl)ccc21` [Phosalone, 3-Diethoxyphosphorylthiomethyl-6-chlorobenzoxazolone] was 350 ppm.
For `CCCSP(=S)(OCC)Oc1ccc(Cl)cc1Cl` (stereo not drawn) [Prothiophos, O-2,4-Dichlorophenyl-O-ethyl-S-propylphosphorodithioate], the LC50 in series [1] (in vivo) turned out to be 260 ppm.
Take `CCOP(=S)(OCC)Oc1ccc(=O)n(-c2ccccc2)n1` [Pyridaphenthion, O,O-Diethyl-O-(3-oxo-2-phenyl-2H-pyridazin-6-yl) phosphorothioate]: in series [1] (setting [3]), the LC50 was determined as 1900 ppm.
Still for that read-out and setting: the value for `CCCSP(=S)(OCC)Oc1ccc(SC)cc1` (stereo not drawn) [Sulprofos, O-Ethyl-O-4-methylthiophenyl-S-propyl-phosphorodithioate] was 320 ppm.
